Laboratory results as given in patent publication US12194015B2, “Composition comprising ferrous amino acid particles and method for treating or ameliorating pancreas-related disease using the same” (priority 2018, dated 2025).
Where “and” joins values, the source holds several entries; their conditions need not be identical. Equal entries are not always repeated.

Key:
[1] = Jaundice observation and blood tests T-bilirubin, GOT/AST, GPT/ALT (Example 6); format: in vivo, NOD-SCID mice
Procedure: The luminescence and fluorescence-labelled cells were implanted into pancreas of experimental mice (50 NOD-SCID experimental mice purchased from BioLASCO Taiwan Co., Ltd) with a cell number of 5×10^5 by surgery. 10 days after the cell implantation to the pancreas of the animals, the baseline data was measured by noninvasive in vivo imaging system (IVIS). After the baseline IVIS data were obtained, all the experimental mice were randomly and evenly assigned into groups [the value of mean±3 s.d. of measured IVIS data was calculated, and the animals having an IVIS data within the standard range were assigned into control group (physiological saline was used), the group of the composition of the present invention obtained from preparation example (24 mg/kg the composition obtained for preparation example 1 was administrated directly into the stomachs of the mice through feeding tubes once per day), gemcitabine group (100 mg/kg gemcitabine was administered by intravenous injection twice per week), and combination group (24 mg/kg the composition of the present invention was administered daily and 100 mg/kg gemcitabine was administered twice per week), followed by the administration. […] The blood tests for total bilirubin (T-bilirubin), glutamate oxaloacetate transaminase/aspartate aminotransferase (GOT/AST), and glutamate pyruvate transaminase/alanine transaminase (GPT/ALT) of all experimental animals on the 9th week were conducted and the mice were observed whether the jaundice occurred or not by the naked eyes. The jaundice signs of mice which could be observed by naked eyes included: emaciation, swollen gall, yellow dark skin, and abnormal yellow limbs and tail.

[2] = tested on: orthotopic xenograft pancreatic cancer (PANC-1); test: Therapeutic effect (I) with gemcitabine: tumor growth (IVIS) and survival (Example 6); format: in vivo, NOD-SCID mice
Procedure: The human pancreatic adenocarcinoma cell line PANC-1 obtained from preparation example 2 was cloned and labelled with luminescence and fluorescence vector. The luminescence and fluorescence-labelled cells were implanted into pancreas of experimental mice (50 NOD-SCID experimental mice purchased from BioLASCO Taiwan Co., Ltd) with a cell number of 5×10^5 by surgery. 10 days after the cell implantation to the pancreas of the animals, the baseline data was measured by noninvasive in vivo imaging system (IVIS). After the baseline IVIS data were obtained, all the experimental mice were randomly and evenly assigned into groups [the value of mean±3 s.d. of measured IVIS data was calculated, and the animals having an IVIS data within the standard range were assigned into control group (physiological saline was used), the group of the composition of the present invention obtained from preparation example (24 mg/kg the composition obtained for preparation example 1 was administrated directly into the stomachs of the mice through feeding tubes once per day), gemcitabine group (100 mg/kg gemcitabine was administered by intravenous injection twice per week), and combination group (24 mg/kg the composition of the present invention was administered daily and 100 mg/kg gemcitabine was administered twice per week), followed by the administration. The dosage and dosage regimen of the composition of the present invention were decided based on the results of example 4 that there were no significant differences between the high-dose group and the low-dose group, so the dosage of 24 mg/kg was chosen for this experiment. The dosage and the dosage regimen of first-line drug for the pancreatic cancer were decided in accordance with two journal articles: Cook, Natalie, et al. “Gamma secretase inhibition promotes hypoxic necrosis in mouse pancreatic ductal adenocarcinoma.” Journal of Experimental Medicine 209.3 (2012): 437-444. and Olive, Kenneth P., et al. “Inhibition of Hedgehog signaling enhances delivery of chemotherapy in a mouse model of pancreatic cancer.” Science (2009), so that the gemcitabine was administered at the dosage of 100 mg/kg twice per week for the experiment. The time points of IVIS data measurement were: Baseline 10 Day (Baseline 10D), the 17th day (the 7th day after administration), the 24th day (14 days after treatment), the 31st day (21 days after treatment), and the 38th day (28 days after treatment) of the experiment. […] The survival period of each mouse during the experiment was recorded.

[3] = Jaundice observation and blood tests T-bilirubin, GOT, GPT (Example 7); format: in vivo; design: dose or concentration left out as unconfirmed; details: 13th week after treatment
Procedure: The luminescence and fluorescence-labelled cells were implanted into pancreas of experimental mice (40 NOD-SCID experimental mice purchased from BioLASCO Taiwan Co., Ltd) with a cell number of 5×10^5 by surgery. 10 days after the cell implantation to the pancreas of the animals, the baseline data was measured by noninvasive in vivo imaging system (IVIS). After the baseline IVIS data were obtained, all the experimental mice were randomly and evenly assigned into groups [the value of mean±3 s.d. of measured IVIS data was calculated, and the animals having an IVIS data within the standard range were assigned into control group (physiological saline was used), the group of the composition of the present invention (24 mg/kg the composition obtained for preparation example 1 was administrated daily), gemcitabine group (100 mg/kg gemcitabine was administered by intravenous injection twice per week continuously for three weeks and discontinuing gemcitabine on the fourth week. These four weeks were named as gemcitabine cycle. […] The survival period of each mouse during the experiment was recorded. […]

[4] = tested on: orthotopic xenograft pancreatic cancer (PANC-1); test: Therapeutic effect (II) with gemcitabine cycles: tumor growth (IVIS) and survival (Example 7); format: in vivo, NOD-SCID mice; details: for inhibition of the tumor growth of the orthotopic xenograft pancreatic cancer compared to control: composition 24 mg/kg daily, gemcitabine 100 mg/kg in gemcitabine cycles
Procedure: The human pancreatic adenocarcinoma cell line PANC-1 obtained from preparation example 2 was cloned and labelled with luminescence and fluorescence vector. The luminescence and fluorescence-labelled cells were implanted into pancreas of experimental mice (40 NOD-SCID experimental mice purchased from BioLASCO Taiwan Co., Ltd) with a cell number of 5×10^5 by surgery. 10 days after the cell implantation to the pancreas of the animals, the baseline data was measured by noninvasive in vivo imaging system (IVIS). After the baseline IVIS data were obtained, all the experimental mice were randomly and evenly assigned into groups [the value of mean±3 s.d. of measured IVIS data was calculated, and the animals having an IVIS data within the standard range were assigned into control group (physiological saline was used), the group of the composition of the present invention (24 mg/kg the composition obtained for preparation example 1 was administrated daily), gemcitabine group (100 mg/kg gemcitabine was administered by intravenous injection twice per week continuously for three weeks and discontinuing gemcitabine on the fourth week. These four weeks were named as gemcitabine cycle. There were three gemcitabine cycles in the present example.), and the combination group (100 mg/kg gemcitabine was administered by intravenous injection twice per week continuously for three weeks, and discontinuing gemcitabine on the fourth week, and the 24 mg/kg composition of the present invention obtained from the preparation example 1 were administered daily). […] The time points of IVIS data measurement of this example were: Baseline 10 Day (Baseline 10D), the 17th day (7 days after treatment), the 24th day (14 days after treatment), the 31st day (21 days after treatment), the 38th day (28 days after treatment), the 45th day (35 days after treatment), and the 59th day (49 days after treatment) of experiment. The blood of the experimental mice was collected and the T-bilirubin, GOT, and GPT in blood were examined to monitor the reason causing the jaundice on the fixed time points [Baseline 10 Day (Baseline 10D), the 4th week after treatment, the 8th week after treatment, the 10th week after treatment, and the 12th week after treatment,]. Whether the jaundice occurred or not was also observed by naked eyes. The jaundice signs of mice which could be observed by naked eyes included: emaciation, swollen gall, yellow dark skin, and abnormal yellow limbs and tail. The survival period of each mouse during the experiment was recorded.

Nc1ccn([C@@H]2O[C@H](CO)[C@@H](O)C2(F)F)c(=O)n1 [gemcitabine]
jaundice ([1]; 9th week after treatment, gemcitabine continuously twice per week): jaundice was found
T-bilirubin in the blood ([1]; 9 weeks after treatment, versus groups not treated with gemcitabine, FIG. 13A): significantly higher
GOT in the blood ([1]; 9 weeks after treatment, versus groups not treated with gemcitabine, FIG. 13B): significantly higher
GPT in the blood ([1]; 9 weeks after treatment, versus groups not treated with gemcitabine, FIG. 13C): significantly higher
effect of inhibiting the tumor growth of the pancreatic cancer compared to control ([2]; 28 days after treatment, composition 24 mg/kg daily, gemcitabine 100 mg/kg i.v. twice per week): around 50%
day of the experiment on which the first dead mouse was found ([2]; Example 6, control 60th day): 77 days
day of the experiment on which the last dead mouse was found ([2]; Example 6, control 91st day): 100 days
average survival period of the whole group ([2]; Example 6, control 80.1 days): 89.4 days
number of mice with T-bilirubin higher than the standard [3]: one
inhibition of the tumor growth of the orthotopic xenograft pancreatic cancer compared to control ([4]; 28th day after treatment): 50%-60%
inhibition of the tumor growth of the orthotopic xenograft pancreatic cancer compared to control ([4]; 49th day after treatment): 50%-60%
Average survival period ([4]; Example 7, control group 89.4): 114.7 days
Survival period of the experimental mice ([4]; individual mice, 7 per group, Example 7): 109 Days (2×) and 113 Days and 119 Days and 140 Days and 105 Days and 108 Days
